Source: EP1285920A1, “C10 Ester sustituted taxanes as antitumor agents” (Florida State University Research Foundation, Inc., priority 2001, dated 2003)
Like-named read-outs stand apart in the source and are kept apart here.

Tests used:
HCT116 = test: In Vitro cytotoxicity measured by the cell colony formation assay; assay type: cell-based, human; conditions: Homo sapiens, HCT-116; read-out: IN VITRO ID 50 HCT116
How it was run: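 Four hundred cells per dish in McCoy's 5a medium with 10% FBS were allowed to attach for 5 h at 37 °C. They were then exposed to compound for 72 h at 37 °C, added as a 10× stock made fresh in medium. After HBSS rinsing and refeeding, colonies were counted after 7 days.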

HCT116 carcinoma = conditions: for Survivors / Toxic Deaths: number of 5 mice, i.v. qd x 1 at MTD, Day 60; for Survivors: doses as in E3; for Toxic Deaths: mg/kg: Taxol 36 (split doses), 0503 72.6, 0536 49, 0663 159, 0670 123, 0687 159, 0706 108, 0908 159, 0947 76.9, 0951 72.6, 0983 72.6, 0999 49, 1003 49, 1011 108
How it was run: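 Mice bearing HCT116 tumours received a single i.v. maximum tolerated dose per compound, formulated in 5% ethanol, 5% Cremophor, 90% isotonic saline. Study ended on Day 60; complete response meant no palpable tumour at study end.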

MX-1 carcinoma = conditions: for Survivors / Toxic Deaths: number of 6 mice, i.v. qd x 1 at MTD, Day 60; for Survivors: doses as in E17; for Toxic Deaths: mg/kg: Taxol 36 (split dose), 0503 72.6, 0536 49, 0663 159, 0670 123, 0687 159, 0706 108, 0908 159, 0947 76.9, 0951 72.6, 0983 67.4, 0999 49, 1003 49, 1011 108
How it was run: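 Mice dosed with a single i.v. bolus (qd x 1) at each compound's MTD, formulated in 5% ethanol, 5% Cremophor, 90% isotonic saline. Study ended Day 60; complete response = tumor not palpable at study end.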

DU145 prostate carcinoma = conditions: for total response rate: iv; for Toxic Deaths / Survivors: number of 5 mice, Day 91; for Toxic Deaths: i.v. qd x 1 at estimated MTD (Taxol 24 mg/kg as two split doses); for Survivors: i.v. qd x 1 at estimated MTD (Taxol 24 mg/kg split)
Source text: Dosing was initiated on Day 1. […] Treatment groups are detailed in Table 5.

A375 melanoma = conditions: for Toxic Deaths / Survivors: number of mice, i.v. qd x 1 at estimated MTD (Taxol 24 mg/kg, Taxotere 70 mg/kg), 6 mice/group (Taxotere 7); for Survivors: Day 60
Method: Dosing was initiated on Day 1. […] Taxotere was given i.v. on a qd x 1 schedule at a dose of 70 mg/kg. […] The study was terminated on Day 60. Treatment groups are detailed in Table 9.

VM46 colon carcinoma = conditions: for response rate: VM46, i.v. qd x 1 at estimated MTD; for Toxic Deaths / Complete Response / Partial Response / Stable Disease / Survivors: number of mice; for Complete Response / Partial Response / Stable Disease / Survivors: Day 64
Method: Dosing was initiated on Day 1. […] Taxotere was given i.v. at a dose of 70 mg/kg on a qd x 1 schedule.

[1] = tested on: Panc-1 pancreatic carcinoma; test: In vivo evaluation against Panc-1 human pancreatic carcinoma (Example 17); conditions: for MDS: i.v. qd x 1 (compounds estimated MTD; Taxol 36 mg/kg split), days until tumor 1.5 g, ended Day 60; for Complete Response / Partial Response / Stable Disease: Day 60; for Mean Score: tumor scoring system
Method: (§1) The dosing volume was 0.3 ml per 20 g mouse.
Female NCr-nude mice were implanted subcutaneously with 1 mm^3 Panc-1 pancreatic carcinoma fragments in the flank and sorted into treatment groups of six mice each. […] Dosing was initiated on Day 1. The antitumor compounds were given i.v. at an estimated maximum tolerated dose (MTD) appropriate for each agent on a qd x 1 schedule (single administration of compound). […] The vehicle was administered i.v. to control mice in Group 1 on the qd x 1 schedule. The study was terminated on Day 60.
(§2) The mean days of survival is the number of days after which a neoplasm reached a size of 1.5 g and the animal was euthanized. A complete response is obtained if the tumor shrinks to a size smaller than its size on Day 1 of the study.

A2780 ovarian carcinoma = tested on: A2780 ovarian carcinoma
Method: Dosing was initiated on Day 1. […] Taxotere was given i.v. on a qd x 1 schedule at a dose of 70 mg/kg. […] The study was terminated on Day 60. Treatment groups are detailed in Table 7.

[2] = tested on: Panc-1 pancreatic carcinoma
Method: as §1
Female NCr-nude mice were implanted subcutaneously with 1 mm^3 Panc-1 pancreatic carcinoma fragments in the flank and sorted into treatment groups of six mice each. […] Dosing was initiated on Day 1. The antitumor compounds were given i.v. at an estimated maximum tolerated dose (MTD) appropriate for each agent on a qd x 1 schedule (single administration of compound). […] The vehicle was administered i.v. to control mice in Group 1 on the qd x 1 schedule.
as §2

[3] = i.v. qd x 1, mg/kg: Taxol 24, 0499 77, 0503 72.6, 0670 123.1, 0706 107.6, 0838 72.6, 0854 46.6, 0983 67.4, Taxotere 70, 6 mice/group
[4] = number of mice, i.v. qd x 1, mg/kg: Taxol 36, 0499 77, 0503 72.6, 0670 123.1, 0706 107.6, 0838 72.6, 0854 76.9, 6 mice/group
[5] = i.v. qd x 1, mg/kg: Taxol 36, 0499 77, 0503 72.6, 0670 123.1, 0706 107.6, 0838 72.6, 0854 76.9, 6 mice/group
[6] = A2780, i.v. qd x 1, five mice per group
[7] = Panc-1 (Example 18), i.v. qd x 1, six mice per group
[8] = number of mice, i.v. qd x 1, mg/kg: Taxol 24, 0854 46.6, 1011 107.6, 6 mice/group, Day 63

## CCC(=O)O[C@H]1C(=O)[C@@]2(C)[C@H]([C@H](OC(=O)c3ccccc3)[C@]3(O)C[C@H](OC(=O)[C@H](O)[C@@H](NC(=O)c4ccccc4)c4ccoc4)C(C)=C1C3(C)C)[C@]1(OC(C)=O)CO[C@@H]1C[C@@H]2O [Compound 0670]
HCT116
  IC50: < 1 nM
HCT116 carcinoma; iv
  Partial Response: 1
HCT116 carcinoma; iv, 1440 h
  Complete Response: 2
  MDS (n): 29.8 ± 0.7 (2) days
  Mean Score: 6.6 ± 1.9
  Stable Disease: 0
HCT116 carcinoma
  Survivors: 3
  Toxic Deaths: 0
MX-1 carcinoma; iv
  Partial Response: 1
MX-1 carcinoma; iv, 1440 h
  Complete Response: 1
  MDS (n): 28.5 ± 6.1 (4) days
  Mean Score: 4.3 ± 1.6
  Stable Disease: 0
MX-1 carcinoma
  Survivors: 2
  Toxic Deaths: 0
DU145 prostate carcinoma
  total response rate: 20-50%
  Toxic Deaths: 0
  Survivors: 4
A375 melanoma
  Toxic Deaths: 0
  Survivors: 0
VM46 colon carcinoma
  response rate: 16.7-40%
VM46 colon carcinoma; iv
  Mean Score: 2.8 ± 1.2
VM46 colon carcinoma; iv, 1536 h
  MDS (n): 40.1 ± 5.8 (5) days
VM46 colon carcinoma; [3]
  Toxic Deaths: 0
  Complete Response: 0
  Partial Response: 1
  Stable Disease: 0
  Survivors: 1
[1]; Panc-1 (Example 17)
  MDS: 47 to 56 days
[1]; Panc-1 (Example 17), i.v. qd x 1, six mice per group
  Toxic Deaths: One
[1]; mean days of survival until neoplasm reached 1.5 g, i.v. qd x 1, mg/kg: Taxol 36, 0499 77, 0503 72.6, 0670 123.1, 0706 107.6, 0838 72.6, 0854 76.9, 6 mice/group, terminated Day 60
  MDS (n): 51.2 ± 5.9 (2) days
[1]; [4]
  Toxic Deaths: 1
  Complete Response: 1
  Partial Response: 0
  Stable Disease: 2
[1]; [5]
  Mean Score: 4.2 ± 1.7

## CCC(=O)O[C@H]1C(=O)[C@@]2(C)[C@H]([C@H](OC(=O)c3ccccc3)[C@]3(O)C[C@H](OC(=O)[C@H](O)[C@@H](NC(=O)c4ccccc4)C4CC4)C(C)=C1C3(C)C)[C@]1(OC(C)=O)CO[C@@H]1C[C@@H]2O [Compound 0706]
HCT116
  IC50: < 1 nM
HCT116 carcinoma; iv
  Partial Response: 4
HCT116 carcinoma; iv, 1440 h
  Complete Response: 1
  Mean Score: 9.2 ± 0.2
  Stable Disease: 0
HCT116 carcinoma
  Survivors: 5
  Toxic Deaths: 0
MX-1 carcinoma; iv
  Partial Response: 0
MX-1 carcinoma; iv, 1440 h
  Complete Response: 5
  Mean Score: 8.3 ± 1.7
  Stable Disease: 0
MX-1 carcinoma
  Survivors: 5
  Toxic Deaths: 1
DU145 prostate carcinoma; DU145, i.v. qd x 1, five mice per group
  complete responses: 2
DU145 prostate carcinoma
  total response rate: 20-50%
  Toxic Deaths: 0
  Survivors: 3
A2780 ovarian carcinoma; iv, 72.6 mg/kg
  Mean Score: 3 ± 0
A2780 ovarian carcinoma; iv, 72.6 mg/kg, 1440 h
  Complete Response: 0
  MDS (n): 37.0 ± 4.1 (5) days
  Partial Respons: 0
  Stable Disease: 0
A2780 ovarian carcinoma; number of mice, i.v. qd x 1 at estimated MTD (Taxol 24 mg/kg, Taxotere 70 mg/kg, 0983 72.6 mg/kg), 5 mice/group (Taxotere 6)
  Toxic Deaths: 0
A2780 ovarian carcinoma; number of mice, i.v. qd x 1 at estimated MTD (Taxol 24 mg/kg, Taxotere 70 mg/kg, 0983 72.6 mg/kg), 5 mice/group (Taxotere 6), Day 60
  Survivors: 0
A375 melanoma
  Toxic Deaths: 1
  Survivors: 0
VM46 colon carcinoma
  response rate: 56%
VM46 colon carcinoma; mean days of survival until neoplasm reached 1.5 g, i.v. qd x 1, mg/kg: Taxol 24, 0499 77, 0503 72.6, 0670 123.1, 0706 107.6, 0838 72.6, 0854 46.6, 0983 67.4, Taxotere 70, 6 mice/group, terminated Day 64
  MDS (n): 48.6 ± 0.9 (3) days
VM46 colon carcinoma; [3]
  Toxic Deaths: 0
  Complete Response: 1
  Partial Response: 2
  Stable Disease: 0
  Survivors: 3
VM46 colon carcinoma; tumor scoring system, i.v. qd x 1, mg/kg: Taxol 24, 0499 77, 0503 72.6, 0670 123.1, 0706 107.6, 0838 72.6, 0854 46.6, 0983 67.4, Taxotere 70, 6 mice/group
  Mean Score: 6.2 ± 1.4
[1]; Panc-1 (Example 17)
  MDS: 47 to 56 days
[1]; [4]
  Toxic Deaths: 0
  Complete Response: 0
  Partial Response: 3
  Stable Disease: 2
[1]; [5]
  Mean Score: 6.6 ± 1

## CCCC(=O)O[C@H]1C(=O)[C@@]2(C)[C@H]([C@H](OC(=O)c3ccccc3)[C@]3(O)C[C@H](OC(=O)[C@H](O)[C@@H](NC(=O)OC(C)(C)C)c4ccsc4)C(C)=C1C3(C)C)[C@]1(OC(C)=O)CO[C@@H]1C[C@@H]2O [Compound 1011]
HCT116
  IC50: < 1 nM
HCT116 carcinoma; iv
  Partial Response: 2
HCT116 carcinoma; iv, 1440 h
  Complete Response: 3
  Mean Score: 9.6 ± 0.2
  Stable Disease: 0
HCT116 carcinoma
  Survivors: 5
  Toxic Deaths: 0
MX-1 carcinoma; iv
  Partial Response: 0
MX-1 carcinoma; iv, 1440 h
  Complete Response: 6
  Mean Score: 10 ± 0
  Stable Disease: 0
MX-1 carcinoma
  Survivors: 6
  Toxic Deaths: 0
DU145 prostate carcinoma; DU145, i.v. qd x 1 at the administered dose, five animals
  mortality rate: ≥ 40%
DU145 prostate carcinoma
  Toxic Deaths: 3
  Survivors: 0
A2780 ovarian carcinoma; A2780, i.v. qd x 1, Day 5
  maximal mean group weight loss: 11.3%
A2780 ovarian carcinoma; [6]
  Complete Response: 1
  Toxic Deaths: no toxic deaths
  partial responses: 3
A2780 ovarian carcinoma; mouse, in vivo, iv
  tolerability / toxicity: well-tolerated
A375 melanoma; A375, i.v. qd x 1
  mean group weight losses: 20 - 30%
A375 melanoma
  Toxic Deaths: 3
  Survivors: 0
[2]; [7]
  partial responses: three
  toxic deaths / toxic lethalities: three
[2]; Panc-1 (Example 18), i.v. qd x 1 at estimated MTD
  overall response rate: 100%
[2]; iv
  Mean Score: 4 ± 1.8
[2]; number of mice, i.v. qd x 1, mg/kg: Taxol 24, 0854 46.6, 1011 107.6, 6 mice/group
  Toxic Deaths: 3
[2]; [8]
  Complete Response: 0
  Partial Response: 3
  Stable Disease: 0
  Survivors: 3
